Assay: Human HepG2 cell viability assay in 384 well format
Format: toxicity, cell-based
Parameters: dose 125 nL, time 70.5 hour; cytotoxicity at 70.5 h: concentration not given beside the values
Conditions: HepG2 cells, read-out: Inhibition

Row | SMILES | cytotoxicity at 70.5 h [%]
1 | NC(=O)C1CCN(C(=O)CCSCc2ccc(Cl)c(Cl)c2)CC1 | -7.23
2 | Cn1nccc1CN1CCOC(c2ccc(-c3cncnc3)cn2)C1 (stereo not drawn) | -6.28
3 | Cn1nccc1-c1cncc(C2CCCN(S(C)(=O)=O)C2)n1 (stereo not drawn) | -7.56
4 | Cn1nccc1-c1cccc(CC2CCN(S(C)(=O)=O)C2)n1 (stereo not drawn) | -4.28
5 | COc1ccc(Cc2nnc(NC(=O)C3CC34CCC4)s2)cc1OC (stereo not drawn) | 0.282
6 | COc1nsc2nc(C3CCCN3C(C)=O)ccc12 (stereo not drawn) | -3.15
7 | CC(=O)N[C@@H]1CN(C(=O)c2cccc(C)c2)C[C@H]1O | -8.6
8 | Cc1nc(N(C)C)cc(C2(C)CCCNC2)n1 (stereo not drawn) | -2.1
9 | CC1(c2ncc(CN3CCN(c4ccccn4)CC3)cn2)CCCCO1 (stereo not drawn) | -1.83
10 | CN(C)Cc1cn(-c2ccccc2C(=O)NCC2CCCCN2C)cn1 (stereo not drawn) | 25.3
11 | CCC(=O)N1CCOC(c2cc(Nc3nncs3)cc(C)n2)C1 (stereo not drawn) | -5.24
12 | CS(=O)(=O)N1CCCC(c2cccc(-c3ccccc3F)n2)C1 (stereo not drawn) | -7.63
13 | O=C(c1cnco1)N1CCC(Cc2cnc3ccccc3c2)CC1 | -1.49
14 | O=S(=O)(c1cn[nH]c1)N1CCC(O)(CN2CCC(F)(F)CC2)C1 (stereo not drawn) | 1.83
15 | Cc1cccc(C)c1Nc1noc2c1CN(C(=O)c1ccn(C)n1)CC2 | 46.4
16 | Cc1nn(C)cc1CN1CCC(c2ncc(Cl)cc2S(C)(=O)=O)CC1 | -6.84
17 | CC(C)c1cc(C(=O)N2CCN(c3ncc4c(n3)CCOC4)CC2)on1 | 14.5
18 | O=C(NCc1ccnc(C2CCCOC2)n1)c1cccs1 (stereo not drawn) | 14.1
19 | CN1CCCC(c2nccnc2-c2cccc(Cl)c2)C1 (stereo not drawn) | -9.62
20 | CO[C@@H]1CCC[C@@H](NC(=O)C(C)(C)c2cccc(F)c2)[C@H]1O | -7.35
21 | CC(=O)Nc1cccc([C@H]2C[C@@H](NC(C)=O)CCO2)c1 | 13.2
22 | Cc1nn(C)cc1CN1CCCC1c1cccc(Nc2nccs2)n1 (stereo not drawn) | 35.9
23 | COc1cccc(F)c1CN1CCC(c2nccc(C)n2)C1 (stereo not drawn) | -9.63

Row | SMILES | cytotoxicity at 70.5 h [%]
24 | Cc1cc(-c2ccnn2C)nc(C2CCCN(S(C)(=O)=O)C2)n1 (stereo not drawn) | -13.9
25 | Cn1cnc(CN2Cc3nccn3CC2c2ccccc2)c1 (stereo not drawn) | -7.94
26 | CCCN(CCO)S(=O)(=O)c1ccc2[nH]c(=O)[nH]c2c1 | 1.55
27 | CN(Cc1ncc(-c2ccccc2C(=O)O)s1)c1ncccn1 | 31.6
28 | CC(=O)N1CC(c2ccnc(Nc3nccs3)n2)C1 | -12.9
29 | O=C(NCCc1cc(N2CCOCC2)nc(N2CCCC2)n1)C1CC1 | -5.52
30 | COc1cc(CCC(=O)N2CCC(c3cc4ncc(C)nc4[nH]3)C2)on1 (stereo not drawn) | 19.5
31 | O=C(NCCc1cc(N2CCOCC2)nc(NC2CC2)n1)C1CCCO1 (stereo not drawn) | -6.3
32 | O=C(NCCc1cc(N2CCOCC2)nc(NC2CC2)n1)C1CC1 | -14
33 | Cc1nonc1CNC(=O)C(C)Oc1ccccc1F (stereo not drawn) | -7.96
34 | CN(C)S(=O)(=O)N1CCOC(c2cccc(-c3cncnc3)n2)C1 (stereo not drawn) | -10.8
35 | CN1CCCCC1(C)C(=O)N1CCC(c2ccccn2)CC1 (stereo not drawn) | 14.5
36 | O=C(O)c1ccccc1-c1ccc(CN2CC(c3ccncn3)C2)o1 | -5.44
37 | Cc1cncnc1C1CCN(C(=O)C2(C)CCCCN2C)CC1 (stereo not drawn) | -4.92
38 | CCC(O)Cn1nc(-c2ccc(C(=O)O)cc2)cc1-c1ccc(F)cc1 (stereo not drawn) | -5.44
39 | CC1(c2ncc(CN(CC(=O)O)Cc3ccccc3)cn2)CCCCO1 (stereo not drawn) | -7.96
40 | O=c1[nH]c2ccc(S(=O)(=O)N(CCO)Cc3ccncc3)cc2[nH]1 | -4.4
41 | CN(C)c1cccc(C(=O)N2CCn3c(nnc3C3CC3)C2)c1 | 19.2
42 | Cc1cc(-c2cnc(N3CCSCC3)nc2C(C)C)on1 | -0.852
43 | Cc1cc(-c2cnc(N3CCCC3)nc2C(C)C)on1 | -7.72
44 | CC(=O)NCCc1cc2nc(-c3ccncc3)ccn2n1 | -4.37
45 | CCc1cc(O)n2nc(C3CCN(C(=O)c4ccncc4)CC3)cc2n1 | 20.6
46 | CN1CCN([C@@H]2CN(C(=O)CCOc3ccccc3)C[C@H]2O)CC1 | 10.8

Row | SMILES | cytotoxicity at 70.5 h [%]
47 | Cn1ccc2cc(CC3COCCN(C(=O)c4ccccn4)C3)ccc21 (stereo not drawn) | -6.94
48 | Cc1cc(Oc2ccccc2)nc(C2CCN(CCO)CC2)n1 | -6.09
49 | Cc1nc2ccc(C(=O)N3CCn4c(nnc4C4CC4)C3)cc2nc1C | -4.74
50 | CC1CCCCN1c1nc2c(c(=O)[nH]1)CCN(Cc1ccccc1F)C2 (stereo not drawn) | -5.68
51 | CCN(CC)C(=O)Cn1c(=O)n(Cc2ccco2)c2ncccc21 | -3.1
52 | Cc1ccsc1CN1CCc2c(nc(N3CCCCC3C)[nH]c2=O)C1 (stereo not drawn) | -6.71
53 | CCN1CCN(c2ncc(-c3cc(C)no3)c(-c3ccco3)n2)CC1 | -3.95
54 | COc1cnc(C2(O)CCN(C(=O)c3ccco3)CC2)c(OC)n1 | -9.83
55 | O=S(=O)(c1ccc(F)cc1)N1CCCC1c1cc[nH]n1 (stereo not drawn) | -7.22
56 | O=S(=O)(c1ccccc1)N1CCCC1c1cc[nH]n1 (stereo not drawn) | -8.7
57 | Cc1ccc(C(=O)N2CC[C@H](Oc3cccnc3C)[C@@H](O)CC2)s1 | 4.2
58 | CCn1cc(CN2CCC(c3[nH]ncc3S(C)(=O)=O)C2)cn1 (stereo not drawn) | 0.805
59 | Cc1nccn1-c1cncc(C2CCCN2Cc2ccccc2)n1 (stereo not drawn) | 14.2
60 | O=C(c1ccccc1Cl)N1CC[C@H](O)[C@@H](N2CCOCC2)CC1 | -4.63
61 | Cc1ncc(CN2CC[C@@](C)(O)[C@H](Oc3cccc(F)c3)C2)cn1 | 14.8
62 | O=C(c1ccc2c(c1)CCC2)N1CC[C@H](O)[C@]2(CCCO2)C1 | -0.381
63 | C[C@]1(O)CCN(Cc2nccs2)C[C@@H]1Oc1cccc(F)c1 | -3.49
64 | CO[C@H]1CN(C(=O)c2ccc3oc(C)cc3c2)C[C@@]12CCCO2 | -3.4
65 | C[C@@]1(O)CCN(Cc2cc[nH]n2)C[C@H]1Oc1cccc(F)c1 | -2.59
66 | C[C@]1(O)CN(Cc2ncc[nH]2)CC[C@@H]1Oc1cccc(F)c1 | -1.65
67 | C[C@]1(O)CN(Cc2cscn2)CC[C@@H]1Oc1cccc(F)c1 | -3.07
68 | Cn1ccnc1CN1CCC(Cc2ccccn2)CC1 | 17.2
69 | Nc1ncnc2c1ncn2[C@H]1CCN(Cc2ccsc2)CC[C@@H]1O | -6.05

Row | SMILES | cytotoxicity at 70.5 h [%]
70 | COCC(=O)N1CCCC1c1nccnc1Nc1nc(C)cs1 (stereo not drawn) | -7.14
71 | O=C(CCn1ncc2ccccc21)N1CCCC(Cc2cccnc2)C1 (stereo not drawn) | -5.11
72 | CC(C)(N)C(=O)N1CCC(c2nccnc2Oc2cccc(F)c2)CC1 | -10.4
73 | CC(C)(N)C(=O)N1CCC(c2nccnc2Oc2ccccc2F)CC1 | 7.72
74 | Cc1cccc(Oc2nccnc2C2CCN(C(=O)C(C)(C)N)CC2)c1 | -4.07
75 | Cc1noc(C)c1C(=O)N1CCC(c2[nH]ncc2S(C)(=O)=O)C1 (stereo not drawn) | -1.52
76 | CCn1cc(C(=O)N2CCCC(c3nccs3)C2)cn1 (stereo not drawn) | -2.34
77 | CNc1cncc(C2CCCN2C(=O)c2ccc3c(c2)OCCO3)n1 (stereo not drawn) | 20.5
78 | COCCC(=O)N1CCCC1c1nccnc1Nc1ncccn1 (stereo not drawn) | 16.8
79 | CCc1cc(C(=O)N2CCCC(Cc3ccc(NC)nn3)C2)on1 (stereo not drawn) | 50.7
80 | CCCC1c2cccn2CCN1C(=O)c1cc(CC)no1 (stereo not drawn) | -2.22
81 | Cc1csc2c(=O)n3c(nc12)CCN(C(=O)c1ccnn1C)CC3 | -6.6
82 | Cc1csc2c(=O)n3c(nc12)CCN(C(=O)c1ccccn1)CC3 | -0.0193
83 | c1coc(-c2[nH]c3ncccc3c2CN2CCCOCC2)c1 | -4.25
84 | CN1CCN(Cc2c(-c3ccco3)[nH]c3ncccc23)CC1 | -6.17
85 | COc1cc2nc3n(c(=O)c2cc1OC)CCN(C(=O)C1CCC1)CC3 | -4.59
86 | CCCn1cc(C(=O)N2CCOC(c3nc(-c4cccs4)no3)C2)cn1 (stereo not drawn) | -4.18
87 | O=C(N[C@@H]1CN(Cc2ccc3[nH]ccc3c2)C[C@H]1O)c1cscn1 | 19.9
88 | O=C(N[C@@H]1CN(Cc2ccc(F)cc2)C[C@H]1O)c1cscn1 | -1.52
89 | Cc1cccnc1CN1CCCCC1c1ccn2ccnc2n1 (stereo not drawn) | -4.81
90 | CNc1ncccc1CN1CCCCC1c1cc(C)n2ccnc2n1 (stereo not drawn) | -5.95
91 | Cc1cc2cc(C(=O)N[C@@H]3CC[C@@H](N4CCCC4)[C@@H]3O)ccc2o1 | -5.68
92 | CCc1nccn1-c1cncc(C2CCCN2Cc2ccccc2)n1 (stereo not drawn) | -5.36

Row | SMILES | cytotoxicity at 70.5 h [%]
93 | CNc1nc(C2CCCCN2C(=O)COC)nc2c1CN(C)CC2 (stereo not drawn) | -9.52
94 | CNc1nc(C2CCCCN2C(=O)C(C)(C)OC)nc2c1CN(C)CC2 (stereo not drawn) | -7.36
95 | Cn1cc(C(=O)N2CCCC(Cc3cccc4ncccc34)C2)cn1 (stereo not drawn) | -3.73
96 | Cc1cncc(C2CCCN(CC3CCC3)C2)n1 (stereo not drawn) | -4.65
97 | CCc1nccn1-c1cncc(C2CCCN2CC(=O)N2CCCC2)n1 (stereo not drawn) | -3.79
98 | CCCn1cc(CN2CCC(c3[nH]ncc3S(C)(=O)=O)C2)cn1 (stereo not drawn) | -7.48
99 | CCC(CN1CCCC1)n1cncc1-c1cnn(-c2ccccc2)c1 (stereo not drawn) | -2.29
100 | Cc1cc(F)ccc1-c1ccccc1CC1CNCCNC1=O (stereo not drawn) | 5.41
101 | NC1CCc2nc(-c3ccncc3)nc(Nc3cccc(F)c3)c2C1 (stereo not drawn) | 9.56
102 | FC(F)(F)c1nc(C2CCNCC2)no1 | -2.97
103 | Cn1ccnc1C1(O)CCN(C(=O)CCc2ccccc2)CC1 | -5.37
104 | Cn1ccnc1C1(O)CCN(C(=O)Cc2ccccc2)CC1 | -6.34
105 | FC(F)CNc1cnc(C2CCNCC2)cn1 | -5.8
106 | CN(C)c1cccc(C(=O)N2CCCC2c2ncc3c(n2)CCNC3)c1 (stereo not drawn) | -2.08
107 | COc1ncc(C2(O)CCN(Cc3cccc(F)c3F)CC2)c(OC)n1 | -3.22
108 | Cc1nc(C)c(C(=O)N2CCc3nc4c(C)csc4c(=O)n3CC2)s1 | 0.911
109 | Cc1ccc(-c2ccc(C3CNCCO3)nc2)cc1 (stereo not drawn) | -2.39
110 | COc1ccc(CN(C)[C@@H]2COC[C@H]2c2ccc(F)cc2)cc1 | -10.1
111 | Cc1cc(C[C@@H]2CCC[C@H]2NCc2ccccc2C)on1 | -1.32
112 | Cc1cc(C[C@@H]2CCC[C@H]2NCc2ccc(C(F)(F)F)cc2)on1 | -2
113 | CC1(C)CC(N(Cc2cccnc2)Cc2cccnc2)CC(C)(C)N1 | -1.63

— ChEMBL document CHEMBL3507680, “University of Dundee, Gates Library screen for HepG2 cell viability”
